Measurements: article PMC9317016, “Oleocanthal Attenuates Metastatic Castration-Resistant Prostate Cancer Progression and Recurrence by Targeting SMYD2” (Cancers, 2022)

Target: SMYD2 (Homo sapiens, UniProt Q9NRG4)
Test: scintillation proximity methyltransferase assay, 3H-methyl incorporation into p53 peptide ([…]), single […] dose
Assay type: biochemical

Chain of SMYD2 (Q9NRG4 whole entry): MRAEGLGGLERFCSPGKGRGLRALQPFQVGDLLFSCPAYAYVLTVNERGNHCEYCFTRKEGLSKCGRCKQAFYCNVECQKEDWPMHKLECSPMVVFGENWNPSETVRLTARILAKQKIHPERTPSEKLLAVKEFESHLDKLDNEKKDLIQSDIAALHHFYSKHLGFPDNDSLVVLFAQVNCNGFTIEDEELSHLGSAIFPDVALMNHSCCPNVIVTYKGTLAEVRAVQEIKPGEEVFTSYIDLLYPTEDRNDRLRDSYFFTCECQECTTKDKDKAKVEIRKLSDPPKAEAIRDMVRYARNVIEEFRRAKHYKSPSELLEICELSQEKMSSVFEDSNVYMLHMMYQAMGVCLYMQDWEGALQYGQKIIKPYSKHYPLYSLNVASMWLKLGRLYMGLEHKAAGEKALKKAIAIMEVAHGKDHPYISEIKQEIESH

C/C=C(/C=O)[C@@H](CC=O)CC(=O)OCCc1ccc(O)cc1 [OC, S-(-)-oleocanthal]
inhibition at 10 µM: 90.8%
